Test results as given in PubChem BioAssay AID1918936 (Molecular Pharmacology Branch, DTP, NCI, 2023).
Values joined by “and” are separate entries in the source; they are usually repeats but may differ in a detail not shown here. Equal entries are not always repeated.

System: 349418-098-R-PDC complex spheroid viability
Assay: Anticancer human tumor 349418-098-R-PDC patient-derived lung adenocarcinoma cell line growth inhibition
Details: for viability, T/C: stronger effect = lower value
Source text: Multicellular complex tumor spheroid response to LSD1 Inhibitor Iadademstat in combination with a variety of drugs and investigational agents in selected tumor cell lines
The current study was undertaken to assess response to LSD1 inhibitors in combination with standard-of-care drugs and investigational agents in solid tumor complex spheroid models as well as in the K-562 leukemia. Complex spheroids include a stromal component modeled by human endothelial cells (HUVEC) and fibroblasts modeled by human mesenchymal stem cells (MSCs). The concentration ranges selected for each drug and investigational agent were based upon clinically achievable concentrations if the clinical Cmax of the agent was known.
Compounds. The drugs and investigational agents used in this study are listed on Table 1. All of the agents used, including staurosporine (NSC755774) and gemcitabine (NSC613327), were obtained from the Developmental Therapeutics Program, NCI. FDA-approved anticancer drugs are available from the NCI at http://dtp.nci.nih.gov/branches/dscb/oncology_drugset_explanation.html. Drugs and investigational agents were >95% pure by proton nuclear magnetic resonance (NMR) and liquid chromatography/mass spectrometry (LC/MS). Stock solutions were prepared at 400x in DMSO, stored at -70 degrees C, and diluted in fresh medium prior to their use. The final concentration of DMSO in cell culture wells never exceeded 0.25% (v/v). The FDA-approved anticancer drug set is available from the Developmental Therapeutics Program at https://dtp.cancer.gov/organization/dscb/obtaining/available_plates.htm. All drugs and investigational agents were tested over a range starting from a high concentration at or near the clinical Cmax and decreasing in half-log increments. If the clinical Cmax for an agent had not been determined, the highest concentration tested was 10 microM.
Cell Lines. The patient-derived cancer cell (PDC) lines: 292921-168-R-J2-PDC, K24384-001-R-PDC, and 521955-158-R2-J5-PDC pancreatic carcinomas, 556581-035-R-J1 ovarian carcinoma, 324938-238-R-J1-PDC, 855422-203-R-J1-PDC and 883617-216-R-J1-PDC urothelial bladder carcinomas, 743489-274-T-PDC renal cell carcinoma, 138582-R-J1 Merkel cell tumor, K60290-347-R-J1 and K57222-313-R-J1-PDC glioblastomas, 653999-131-R-J2-PDC, LG0703-F948-PDC, and 349418-098-R-PDC non-small cell lung carcinomas, 885512-296-R-J2-PDC, 171881-019-R-J1-PDC breast carcinomas and 186277-243-T-J2-PDC and 233499-124-R-J2-PDC colon carcinomas were obtained from the NCI Patient-Derived Models Repository (PDMR, https://pdmr.cancer.gov). The established cell lines NCI/ADR-RES (RRID:CVCL_14520 and OVCAR-5 (RRID:CVCL_1628) ovarian carcinomas, 786-O (RRID:CVCL_1051) and A498 (RRID:CVCL_A498) renal cell carcinoma, NCI-H211 (ATCC, cat. CRL-5824; RRID:CVCL_1529), NCI-H196 (ATCC, cat. CRL-5823, RRID:CVCL_1509), SW 1271 (ATCC, cat. CRL-2177, RRID:CVCL_1716) and NCI-H1876 (ATCC, cat. CRL-5902, RRID:CVCL_1503) small cell lung carcinomas, MDA-MB-231 (RRID:CVCL_0062) and MDA-MB-468 (RRID:CVCL_0419)breast carcinomas (10-12). Pooled donor human umbilical vein endothelial cells (HUVEC, Lonza, cat. CC-2519) and human mesenchymal stem cells (hMSC, Lonza, cat. PT-2501) were purchased from Lonza (Walkersville, MD).
Cell Culture. All cells were maintained in an incubator at 37 degrees C and 5% CO2 with 95% humidity. The PDC lines were cultured according to standard operating procedures established by the NCI PDMR (https://pdmr.cancer.gov). Briefly all PDCs were thawed and cultured in Matrigel-coated flasks prepared with a working solution of 1X Ham's F-12 nutrient mix, without supplementation (Invitrogen, Waltham, MA, cat. 11765054), 100 U/mL penicillin-streptomycin (Invitrogen, cat. 15140122), and 2.5% Matrigel (Corning Inc., Corning, NY, cat. 354248) for the first three passages. […]

[1] = curve of first compound, second compound 0.1 µM
[2] = curve of first compound, second compound 0.316 µM
[3] = curve of first compound, second compound 1 µM
[4] = curve of first compound, second compound 3.16 µM
[5] = curve of first compound, second compound 10 µM
[6] = second compound 0.1 µM, first compound 0.00949 µM
[7] = second compound 0.1 µM, first compound 0.03 µM
[8] = second compound 0.1 µM, first compound 0.0949 µM
[9] = second compound 0.1 µM, first compound 0.3 µM
[10] = second compound 0.1 µM, first compound 0.949 µM
[11] = second compound 0.1 µM, first compound 3 µM
[12] = second compound 0.316 µM, first compound 0.00949 µM
[13] = second compound 0.316 µM, first compound 0.03 µM
[14] = second compound 0.316 µM, first compound 0.0949 µM
[15] = second compound 0.316 µM, first compound 0.3 µM
[16] = second compound 0.316 µM, first compound 0.949 µM
[17] = second compound 0.316 µM, first compound 3 µM
[18] = second compound 1 µM, first compound 0.00949 µM
[19] = second compound 1 µM, first compound 0.03 µM
[20] = second compound 1 µM, first compound 0.0949 µM
[21] = second compound 1 µM, first compound 0.3 µM
[22] = second compound 1 µM, first compound 0.949 µM
[23] = second compound 1 µM, first compound 3 µM
[24] = second compound 3.16 µM, first compound 0.00949 µM
[25] = second compound 3.16 µM, first compound 0.03 µM
[26] = second compound 3.16 µM, first compound 0.0949 µM
[27] = second compound 3.16 µM, first compound 0.3 µM
[28] = second compound 3.16 µM, first compound 0.949 µM
[29] = second compound 3.16 µM, first compound 3 µM
[30] = second compound 10 µM, first compound 0.00949 µM
[31] = second compound 10 µM, first compound 0.03 µM
[32] = second compound 10 µM, first compound 0.0949 µM
[33] = second compound 10 µM, first compound 0.3 µM
[34] = second compound 10 µM, first compound 0.949 µM
[35] = second compound 10 µM, first compound 3 µM
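Also: spheroids exposed to agents for seven days before readout.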
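For viability, T/C in this document: 100% = DMSO vehicle control wells.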

SMILES | IC50 [1] [nM] | IC50 [2] [nM] | IC50 [3] [nM] | IC50 [4] [nM] | IC50 [5] [nM] | viability, T/C [6] [%] | viability, T/C [7] [%] | viability, T/C [8] [%] | viability, T/C [9] [%] | viability, T/C [10] [%] | viability, T/C [11] [%] | viability, T/C [12] [%] | viability, T/C [13] [%] | viability, T/C [14] [%] | viability, T/C [15] [%] | viability, T/C [16] [%] | viability, T/C [17] [%] | viability, T/C [18] [%] | viability, T/C [19] [%] | viability, T/C [20] [%] | also measured
Nc1ccccc1NC(=O)c1ccc(CNC(=O)OCc2cccnc2)cc1 + NC1CCC(NC2CC2c2ccccc2)CC1 | 244 | 279 | 224 | 314 | 269 | 106 | 88.6 | 76.2 | 46.2 | 15.4 | 5.1 | 102 | 97.3 | 81.8 | 48.9 | 15.4 | 5.32 | 117 | 85.9 | 73.6 | viability, T/C [21]: 46.3%; viability, T/C [22]: 15.9%; viability, T/C [23]: 5.11%; viability, T/C [24]: 104%; viability, T/C [25]: 85.8%; viability, T/C [26]: 83.6%; viability, T/C [27]: 53%; viability, T/C [28]: 15.6%; viability, T/C [29]: 5.33%; viability, T/C [30]: 96.1%; viability, T/C [31]: 91.1%; viability, T/C [32]: 75.5%; viability, T/C [33]: 50.2%; viability, T/C [34]: 12.7%; viability, T/C [35]: 4.33%
CCc1c2c(nc3ccc(O)cc13)-c1cc3c(c(=O)n1C2)COC(=O)[C@]3(O)CC |  |  |  |  |  |  |  |  |  |  |  |  |  |  |  |  |  |  |  |  | viability, T/C (compound 0.000949 µM): 4.32% and 3.69%; viability, T/C (compound 0.003 µM): 2.63% and 2.24%; viability, T/C (compound 0.00949 µM): 1.82% and 1.28%; viability, T/C (compound 0.03 µM): 1.29% and 1.41%; viability, T/C (compound 0.0949 µM): 1.48% and 2.01%; viability, T/C (compound 0.3 µM): 1.75% and 2.19%; IC50 (curve of compound): < 0.949 nM
NS(=O)(=O)OCC1CC(n2ccc3c(NC4CCc5ccccc54)ncnc32)CC1O (configuration not stated) + NC1CC1c1ccc(-c2cccc(O)c2)cc1 | 64.1 | 59.1 | 59.6 | 60.7 | 38 | 116 | 86.6 | 30.5 | 11.9 | 5.29 | 4.99 | 120 | 82.3 | 26.6 | 12.4 | 5.84 | 4.12 | 124 | 77 | 31.9 | viability, T/C [21]: 11.3%; viability, T/C [22]: 5.2%; viability, T/C [23]: 4.27%; viability, T/C [24]: 124%; viability, T/C [25]: 81.6%; viability, T/C [26]: 29.2%; viability, T/C [27]: 12.2%; viability, T/C [28]: 5.08%; viability, T/C [29]: 4.44%; viability, T/C [30]: 106%; viability, T/C [31]: 55.5%; viability, T/C [32]: 28.1%; viability, T/C [33]: 9.97%; viability, T/C [34]: 4.94%; viability, T/C [35]: 2.73%
COc1cc(C2c3cc4c(cc3C(OC3OC5COC(C)OC5C(O)C3O)C3COC(=O)C23)OCO4)cc(OC)c1O (configuration not stated) + NC1CCC(NC2CC2c2ccccc2)CC1 | 79.5 | 89.9 | 86.5 | 85.8 | 57.1 | 105 | 83.1 | 44.7 | 14.6 | 6.37 | 4.96 | 91.9 | 100 | 47.7 | 15.1 | 6.33 | 5.43 | 108 | 91.5 | 45.6 | viability, T/C [21]: 16%; viability, T/C [22]: 6.74%; viability, T/C [23]: 5.14%; viability, T/C [24]: 106%; viability, T/C [25]: 86.4%; viability, T/C [26]: 47.6%; viability, T/C [27]: 14.2%; viability, T/C [28]: 6.91%; viability, T/C [29]: 5.13%; viability, T/C [30]: 89.6%; viability, T/C [31]: 67%; viability, T/C [32]: 37.2%; viability, T/C [33]: 13.8%; viability, T/C [34]: 6.9%; viability, T/C [35]: 5.24%
Nc1ccccc1NC(=O)c1ccc(CNC(=O)OCc2cccnc2)cc1 + NC1CC1c1ccc(-c2cccc(O)c2)cc1 | 83.7 | 102 | 121 | 145 | 136 | 94 | 68.2 | 53.2 | 20.4 | 6.54 | 3.26 | 102 | 84.8 | 53.8 | 17.8 | 6.05 | 3.43 | 106 | 83.1 | 61.2 | viability, T/C [21]: 22.6%; viability, T/C [22]: 6.06%; viability, T/C [23]: 3.46%; viability, T/C [24]: 102%; viability, T/C [25]: 84.4%; viability, T/C [26]: 67.9%; viability, T/C [27]: 23.9%; viability, T/C [28]: 6.45%; viability, T/C [29]: 2.77%; viability, T/C [30]: 93.3%; viability, T/C [31]: 81.7%; viability, T/C [32]: 64.3%; viability, T/C [33]: 21.7%; viability, T/C [34]: 5.86%; viability, T/C [35]: 2.77%
